One data set deals with C. glabrata (ATCC 2001). As to conditions: cited from earlier work.
Data set [1] concerns Candida albicans (ATCC 90028). As to conditions: C. albicans; cited from earlier work.
Data set [2] concerns most gram positive organisms. The conditions noted are these: cited from earlier work.
The conditions of data set [3]: cited from earlier work.
The conditions of data set [4]: ingestion of a 200 mg tablet, microcrystalline suspension in oil-wax base; cited from earlier work.
Data set [5] concerns S. aureus. Description: Rapid MIC prediction with lycopene/HSA assay (UV-Vis absorbance after 30 min incubation). It counts as cell-based. As to conditions: Staphylococcus aureus, 0.5 h. The method, then: (§1) The present lycopene/HSA complexes were used to characterize the minimum inhibitory concentration (MIC) of antimicrobial compounds. A lycopene/HSA complex, prepared as described herein, was mixed with a series of samples that all had the same initial amount of S. aureus (200 CFU/mL of PHS), and which was incubated with a varying amount of vancomycin for 30 minutes. […] Upon the addition of the lycopene/HSA assay, aggregation of the lycopene/HSA increased in a manner that scales with S. aureus concentration (and thus on the vancomycin concentration). These changes were characterized via the changes in the UV-Vis spectrum, depicted at the bottom in FIG. 23. The chart on the top in FIG. 23 depicts the absorbance at 600 nm for these samples after another 18 hours of incubation. This absorbance was dominated by the pathogen concentration after 18 hours of growth.
(§2) FIG. 23. Rapid prediction of the MIC of S. aureus at 200 CFU/mL. […] Lycopene (1.125 mM), fucoxanthin (0.375 mM), additional vancomycin (so as to maintain the same concentration of vancomycin) and additional 3440 μl PBS (to bring the total volume to 6 ml) was added and the UV-Vis absorbance was measured. […] The chart on the top depicts the absorbance at 600 nm after 18 hour incubation at 37° C. […]

Data set [6] relates to S. aureus. In words: MIC by absorbance at 600 nm after 18 hour incubation. The class given is cell-based. The conditions noted are these: Staphylococcus aureus; absorbance at 600 nm after 18 hour incubation at 37° C.; read-out: actual MIC (break point). The method, then: as §1, §2

The structures appear in SMILES notation. In brackets after ≈: the same amount, converted by molar mass.

These results are taken from patent publication US12357679B2, “Albumin-based non-covalent complexes and methods of use thereof” (Spectral Platforms, Inc., priority 2015, dated 2025).

With `C[C@@H]1[C@H](O)[C@@H](C)/C=C/C=C/C=C/C=C/C=C/C=C/C=C/[C@H](O[C@@H]2O[C@H](C)[C@@H](O)[C@H](N)[C@@H]2O)C[C@@H]2O[C@](O)(C[C@@H](O)C[C@@H](O)[C@H](O)CC[C@@H](O)C[C@@H](O)CC(=O)O[C@H]1C)C[C@H](O)[C@H]2C(=O)O` [Amphotericin B], the “previously reported minimum inhibitory concentration MIC” value (in the data set on C. glabrata (ATCC 2001); in data set [1]) was “about 0.5 μg/mL” each time.
Usually MIC stands for the lowest concentration found to suppress growth. In the case of `CC(C)/N=c1\cc2n(-c3ccc(Cl)cc3)c3ccccc3nc-2cc1Nc1ccc(Cl)cc1` [Clofazimine], the MIC entry in data set [2] was “about 0.4 μg/mL”. Further, the water solubility entry in data set [3] is “not water soluble”. In addition, the peak plasma concentration in data set [4] was 0.41 µg/mL.
Consider `CN[C@H](CC(C)C)C(=O)N[C@H]1C(=O)N[C@@H](CC(N)=O)C(=O)N[C@H]2C(=O)N[C@H]3C(=O)N[C@H](C(=O)N[C@H](C(=O)O)c4cc(O)cc(O)c4-c4cc3ccc4O)[C@H](O)c3ccc(c(Cl)c3)Oc3cc2cc(c3O[C@@H]2O[C@H](CO)[C@@H](O)[C@H](O)[C@H]2O[C@H]2C[C@](C)(N)[C@H](O)[C@H](C)O2)Oc2ccc(cc2Cl)[C@H]1O` [vancomycin], for which the minimal inhibitory concentration (MIC) in the data set on S. aureus [5] (read-out: predicted MIC) is around 0.6 µg/mL (≈ 0.414 µM); with S. aureus [5] (read-out: predicted MIC (break point)), 200 µg/mL (≈ 138 µM); in the data set on S. aureus [6], 0.2 µg/mL (≈ 0.138 µM).
